Test results from US8344135B2, “Heterocyclic compound and use thereof” (Takeda Pharmaceutical Company Limited, priority 2007, dated 2013).

Columns and labels:
[1] = system: human colon cancer cell HT-29; assay: Colon cancer cell HT-29 growth suppressive action in vitro; assay type: cell-based; settings: 72 h, HT-29 cells, 3 days culture, SRB staining, read-out: IC50 (nM), cell growth suppression
Procedure: Colon Cancer Cell HT-29 Growth Suppressive Action in vitro
A cell suspension (100 μL, 3,000 cells/well) of human colon cancer cell HT-29 (purchased from ATCC) was plated in a 96-well plate, and the cells were cultured at 37° C. in a 5% carbon dioxide gas incubator. The next day, 2-fold serial dilution of each test compound solution (diluted from maximum concentration 20 μM) (100 μL) was added, and the cells were cultured for 3 days. The culture medium containing the test compound was removed, and the cells were washed with phosphate buffer (PBS). A 50% trichloroacetic acid solution was added to the final concentration of 10% (v/v), and the mixture was stood overnight at 4° C., whereby the cells were fixed to the plate. Then, a dye SRB 0.4% (w/v) solution (dissolved in 1% acetic acid) was added at 50 μl/well, whereby the cell protein was fixed and stained (Skehan et al., Journal Of National Cancer Institute, vol. 82, pp. 1107-1112, 1990). The cells were washed 3 times with 1% acetic acid solution (200 μL/well), and 100 μL of an extract (10 mM Tris buffer) was added to extract the dye. The absorbance at an absorption wavelength […] was measured, and cell amount was measured as a protein amount.

BRAF (V600E) = target: T1, BRAF (V600E) (Homo sapiens, UniProt P15056, V600E); assay: Determination of BRAF (V600E) kinase inhibitory activity; assay type: biochemical; settings: test compound 1.0 μM; substrate GST-MEK1 (K96R); [γ-32P]ATP; read-out: Inhibitory rate (%) at 1.0 μM
T1 construct: area encoding the BRAF kinase domain region, so that the protein contains an N-terminal Flag; made in house; host or cells: SF-21 insect cells infected with recombinant baculovirus BAC-V600E
T1 sequence (P15056 457-717 V600E limits assumed): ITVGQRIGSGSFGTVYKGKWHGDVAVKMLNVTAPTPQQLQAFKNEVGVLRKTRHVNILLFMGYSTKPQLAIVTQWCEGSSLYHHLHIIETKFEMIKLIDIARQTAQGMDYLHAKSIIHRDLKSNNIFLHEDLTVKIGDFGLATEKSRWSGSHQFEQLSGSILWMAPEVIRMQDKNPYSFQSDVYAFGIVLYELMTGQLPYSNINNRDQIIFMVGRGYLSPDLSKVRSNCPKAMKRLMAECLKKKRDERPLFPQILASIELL
Procedure: Determination of BRAF (V600E) Kinase Inhibitory Activity
A test compound (2.5 μL) dissolved in dimethyl sulfoxide (DMSO) was added to 37.5 μL of a reaction solution (25 mM HEPES (pH 7.5), 10 mM magnesium acetate, 1 mM dithiothreitol) containing BRAF (V600E) enzyme (30 ng) and recombinant type protein GST-MEK1 (K96R) 250 ng, and the mixture was incubated at room temperature for 10 min. ATP solution (10 μL, 2.5 μM ATP, 0.1 μCi [γ-^32P]ATP) was added to the obtained mixture, and the mixture was reacted at room temperature for 20 min. The reaction was quenched by adding 50 μL of ice-cooled 20% trichloroacetic acid (Wako Pure Chemical Industries, Ltd.). The reaction solution was allowed to stand at 4° C. for 30 min, and the acid-precipitable fraction was transferred to GF/C filter plate (Millipore Corporation) using cell harvester (PerkinElmer). The plate was dried at 45° C. for 60 min, and 40 μL of MicroScinti 0 (PerkinElmer) was added thereto. The radioactivity was measured using TopCount (PerkinElmer). The kinase inhibitory rate (%) of the test compound was calculated by the following formula: Inhibitory rate (%)=(1−(count of test compound−blank)÷(control−blank))×100
The count of the solution reacted without addition of the compound was used as a “control”, and the count of the solution without the compound and enzyme was used as a “blank”.

SMILES	IC50 [1] [nM]	inhibition at 1 µM (BRAF (V600E)) [%]
CN(c1ccc(F)c(NC(=O)c2cccc(OC(C)(C)C#N)c2Cl)c1)c1ccc2nc(NC(=O)C3CC3)sc2n1 [Example C122, 2-chloro-3-(1-cyano-1-methylethoxy)-N-{5-[{2-[(cyclopropylcarbonyl)amino][1,3]thiazolo[5,4-b]pyridin-5-yl}(methyl)amino]-2-fluorophenyl}benzamide]	< 500	
Cc1ccc(NC(=O)c2cccc(C(C)(C)C#N)c2)cc1Oc1ccc2nc(NC(=O)CN3CCN(C)CC3)sc2n1 [Example C15, 3-(1-cyano-1-methylethyl)-N-{4-methyl-3-[(2-{[(4-methylpiperazin-1-yl)acetyl]amino}[1,3]thiazolo[5,4-b]pyridin-5-yl)oxy]phenyl}benzamide]	< 500	
CC(C)(C#N)c1cccc(C(=O)Nc2cccc(Oc3ccc4nc(NC(=O)CO)sc4n3)c2)c1 [Example C24, 3-(1-cyano-1-methylethyl)-N-(3-{[2-(glycoloylamino)[1,3]thiazolo[5,4-b]pyridin-5-yl]oxy}phenyl)benzamide]	< 500	
CC(C)(C#N)c1cccc(C(=O)Nc2cc(Oc3ccc4nc(NC(=O)C5CC5)sc4n3)ccc2F)c1Cl [Example C63, 2-chloro-3-(1-cyano-1-methylethyl)-N-[5-({2-[(cyclopropylcarbonyl)amino][1,3]thiazolo[5,4-b]pyridin-5-yl}oxy)-2-fluorophenyl]benzamide]		101
Cc1ccc(Oc2ccc3nc(NC(=O)CO)sc3n2)cc1NC(=O)c1cccc(C(C)(C)C#N)c1 [Example C36, 3-(1-cyano-1-methylethyl)-N-(5-{[2-(glycoloylamino)[1,3]thiazolo[5,4-b]pyridin-5-yl]oxy}-2-methylphenyl)benzamide]		100
CN1CCN(CC(=O)Nc2nc3ccc(Oc4cccc(NC(=O)c5cccc(C(C)(C)C#N)c5)c4)nc3s2)CC1 [Example C25, 3-(1-cyano-1-methylethyl)-N-{3-[(2-{[(4-methylpiperazin-1-yl)acetyl]amino}[1,3]thiazolo[5,4-b]pyridin-5-yl)oxy]phenyl}benzamide]		100
CCN1CCN(CC(=O)Nc2nc3ccc(Oc4cc(NC(=O)c5cccc(C(C)(C)C#N)c5)ccc4C)nc3s2)CC1 [Example C88, 3-(1-cyano-1-methylethyl)-N-{3-[(2-{[(4-ethylpiperazin-1-yl)acetyl]amino}[1,3]thiazolo[5,4-b]pyridin-5-yl)oxy]-4-methylphenyl}benzamide]	< 500	
CN1CCN(CC(=O)Nc2nc3ccc(Oc4cccc(NC(=O)c5cccc(C6(C#N)CC6)c5)c4)nc3s2)CC1 [Example C28, 3-(1-cyanocyclopropyl)-N-{3-[(2-{[(4-methylpiperazin-1-yl)acetyl]amino}[1,3]thiazolo[5,4-b]pyridin-5-yl)oxy]phenyl}benzamide]	< 500	
CC(C)(C#N)c1cccc(C(=O)Nc2cccc(Oc3ccc4nc(NC(=O)C5CC5)sc4n3)c2)c1 [Example C23, 3-(1-cyano-1-methylethyl)-N-[3-({2-[(cyclopropylcarbonyl)amino][1,3]thiazolo[5,4-b]pyridin-5-yl}oxy)phenyl]benzamide]	< 500	
COc1ccc(NC(=O)c2cccc(C(C)(C)C#N)c2)cc1Oc1ccc2nc(NC(=O)C3CC3)sc2n1 [Example C6, 3-(1-cyano-1-methylethyl)-N-[3-({2-[(cyclopropylcarbonyl)amino][1,3]thiazolo[5,4-b]pyridin-5-yl}oxy)-4-methoxyphenyl]benzamide]	< 500	
CC(=O)Nc1nc2cnc(Nc3cc(NC(=O)c4cccc(C(C)(C)C#N)c4Cl)ccc3C)nc2s1 [Example D35, N-(3-{[2-(acetylamino)[1,3]thiazolo[5,4-d]pyrimidin-5-yl]amino}-4-methylphenyl)-2-chloro-3-(1-cyano-1-methylethyl)benzamide]	< 500	

Continued, values first:

IC50 [1] [nM]	inhibition at 1 µM (BRAF (V600E)) [%]	SMILES
< 500		N#CC1(c2cccc(C(=O)Nc3cc(Oc4ccc5nc(NC(=O)C6CC6)sc5n4)ccc3F)c2Cl)CC1 [Example C66, 2-chloro-3-(1-cyanocyclopropyl)-N-[5-({2-[(cyclopropylcarbonyl)amino][1,3]thiazolo[5,4-b]pyridin-5-yl}oxy)-2-fluorophenyl]benzamide]
	98	CC(=O)Nc1nc2cnc(N(C)c3cccc(NC(=O)c4cccc(C(F)(F)F)c4)c3)nc2s1 [Example D1, N-{3-[[2-(acetylamino)[1,3]thiazolo[5,4-d]pyrimidin-5-yl](methyl)amino]phenyl}-3-(trifluoromethyl)benzamide]
< 500		CC(C)(C#N)Oc1cccc(C(=O)Nc2cc(Nc3ccc4nc(NC(=O)C5CC5)sc4n3)ccc2F)c1Cl [Example C126, 2-chloro-3-(1-cyano-1-methylethoxy)-N-[5-({2-[(cyclopropylcarbonyl)amino][1,3]thiazolo[5,4-b]pyridin-5-yl}amino)-2-fluorophenyl]benzamide]
	100	COc1ccc(NC(=O)c2cccc(C3(C#N)CC3)c2)cc1Oc1ccc2nc(NC(=O)C3CC3)sc2n1 [Example C1, 3-(1-cyanocyclopropyl)-N-[3-({2-[(cyclopropylcarbonyl)amino][1,3]thiazolo[5,4-b]pyridin-5-yl}oxy)-4-methoxyphenyl]benzamide]
< 500		Cc1ccc(NC(=O)c2cccc(C(C)(C)C#N)c2)cc1Nc1ncc2nc(NC(=O)C3CC3)sc2n1 [Example D25, 3-(1-cyano-1-methylethyl)-N-[3-({2-[(cyclopropylcarbonyl)amino][1,3]thiazolo[5,4-d]pyrimidin-5-yl}amino)-4-methylphenyl]benzamide]
< 500		Cc1ccc(NC(=O)c2cccc(C(C)(C)C#N)c2)cc1Oc1ccc2nc(NC(=O)C3CC3)sc2n1 [Example C12, 3-(1-cyano-1-methylethyl)-N-[3-({2-[(cyclopropylcarbonyl)amino][1,3]thiazolo[5,4-b]pyridin-5-yl}oxy)-4-methylphenyl]benzamide]
	100	CN1CCN(CC(=O)Nc2nc3ccc(Oc4cccc(NC(=O)c5cccc(C(F)(F)F)c5)c4)nc3s2)CC1 [Example C22, N-{3-[(2-{[(4-methylpiperazin-1-yl)acetyl]amino}[1,3]thiazolo[5,4-b]pyridin-5-yl)oxy]phenyl}-3-(trifluoromethyl)benzamide]
	100	CC(C)(C#N)c1cccc(C(=O)Nc2cc(Oc3ccc4nc(NC(=O)C5CC5)sc4n3)c(Cl)cc2F)c1 [Example C60, N-[4-chloro-5-({2-[(cyclopropylcarbonyl)amino][1,3]thiazolo[5,4-b]pyridin-5-yl}oxy)-2-fluorophenyl]-3-(1-cyano-1-methylethyl)benzamide]
	100	O=C(Nc1cccc(Nc2ccc3nc(NC(=O)C4CC4)sc3n2)c1)c1cccc(C(F)(F)F)c1 [Example C41, N-[3-({2-[(cyclopropylcarbonyl)amino][1,3]thiazolo[5,4-b]pyridin-5-yl}amino)phenyl]-3-(trifluoromethyl)benzamide]
	100	Cc1ccc(Oc2ccc3nc(NC(=O)c4cocn4)sc3n2)cc1NC(=O)c1cccc(C2(C#N)CC2)c1 [Example C30, N-[5-(3-{[3-(1-cyanocyclopropyl)benzoyl]amino}-4-methylphenoxy)[1,3]thiazolo[5,4-b]pyridin-2-yl]-1,3-oxazole-4-carboxamide]
< 500		Cc1ccc(NC(=O)c2cccc(C3(C#N)CC3)c2)cc1Oc1ccc2nc(NC(=O)CN3CCN(C)CC3)sc2n1 [Example C19, 3-(1-cyanocyclopropyl)-N-{4-methyl-3-[(2-{[(4-methylpiperazin-1-yl)acetyl]amino}[1,3]thiazolo[5,4-b]pyridin-5-yl)oxy]phenyl}benzamide]
< 500		CN1CCN(CC(=O)Nc2nc3cnc(N(C)c4cccc(NC(=O)c5cccc(C(C)(C)C#N)c5)c4)nc3s2)CC1 [Example D11, 3-(1-cyano-1-methylethyl)-N-{3-[methyl(2-{[(4-methylpiperazin-1-yl)acetyl]amino}[1,3]thiazolo[5,4-d]pyrimidin-5-yl)amino]phenyl}benzamide]
< 500		Cc1ccc(NC(=O)c2cccc(C(C)(C)C#N)c2)cc1Nc1ncc2nc(NC(=O)CN3CCN(C)CC3)sc2n1 [Example D33, 3-(1-cyano-1-methylethyl)-N-{4-methyl-3-[(2-{[(4-methylpiperazin-1-yl)acetyl]amino}[1,3]thiazolo[5,4-d]pyrimidin-5-yl)amino]phenyl}benzamide]
